How the values were obtained:
[1] = tested on: phosphorylated GSK3 (Ser9) in MCF7 cells; assay: Cellular pGSK3 assay (pGSK3-ELISA); type: cell-based; conditions: Homo sapiens, 48 h, read-out: GSK3 inhibition (pGSK3-ELISA): IC50
Protocol: In order to study the cellular activity of the compounds according to the invention, an ELISA-based assay has been established for the phosphorylated glycogen synthetase kinase 3, GSK3. The assay is based on a solid phase sandwich ELISA that detects endogenous levels of the phosphorylated GSK3 (BioSource International, Inc.; Catalog #KH00461). A phospho-GSK3 (Ser9) antibody has been coated onto the microwells. After incubation with cell lysates, the coated antibody captures the phosphorylated GSK3 protein. Following extensive washing, GSK3 polyclonal antibody is added to detect the captured phospho-GSK3 protein. […] (anti-rabbit IgG-HRP) is then used to recognize the bound detection antibody. After the second incubation and washing to remove all the excess anti-rabbit IgG-HRP, a substrate solution is added, which is acted upon by the bound enzyme to produce color. The intensity of this colored product is directly proportional to the concentration of […] [pS9] present in the original specimen.
MCF7 cells (ATCC HTB-22) are seeded into 96 well plates at a density of 10000 cells/well.
Cells are harvested and lysed with brief vortexing in cell extraction buffer (10 mM Tris, pH 7.4, 100 mM NaCl, 1 mM EDTA, 1 mM EGTA, 1 mM NaF, 20 mM Na4P2O7, 2 mM Na3VO4, 1% Triton X-100, 10% glycerol, 0.1% SDS, 0.5% deoxycholate, 1 mM PMSF). The lysate are centrifuged for 10 minutes at 4° C. and the supernatant transferred to a new tube. 50 μl of sample diluent (standard diluent buffer, Biosource) are added and 100 μl of cell lysate transferred into the tube and vortexed. 100 μl of each diluted cell lysate are added to the appropriate well (phospho-GSK3 (Ser9) antibody coated microwells; BioSource) and incubated for 3 h at room temperature. The plates are washed 4 times with 1× wash buffer (Biosource). […] The absorbance is measured at 450 nm (Wallac Victor2; Perkin Elmer, USA) within 30 minutes after adding Stop solution. The analysis of the data is performed using a statistical program (Microsoft Excel, USA) and the inhibition of pGSK3 phosphorylation is determined.

[2] = target: T1, PKA (Homo sapiens, UniProt P17612); assay: Biochemical PKA assay (flashplate); conditions: 100 nM ATP; read-out: PKA inhibition: −log IC50 (converted)
T1 construct: His; purchased PanVera, USA #R3791; host or cells: E. coli
Summary of the method: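 His-tagged human recombinant PKA catalytic subunit (E. coli), 1 ng/well, with 0.5 μM PKA peptide and 100 nM ATP including ^33P-ATP. Buffer […] pH7,5, 3 mM MgCl2, 3 mM MnCl2, Na-orthovanadate, 1 mM DTT; 80 min at 22° C. Stopped with H3PO4, scintillation flashplate counting, IC50 derived.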

| IC50 [1] [µM] | IC50 [2] [µM] | SMILES |
| --- | --- | --- |
| < 10 |  | NCCCC(=O)Nc1ccc(Nc2nc(-c3cccc4c3oc3ccccc34)cc3ccnn23)cc1 [Example 24, 4-Amino-N-[4-(5-dibenzofuran-4-yl-pyrazolo[1,5-c]pyrimidin-7-ylamino)-phenyl]-butyramide] |
| < 10 | 6.31 to 100 | COc1cccc(-c2ccc(-c3cc4ccnn4c(Nc4ccc(NC(=O)c5ccc(CN)cc5)cc4)n3)cc2)c1 [Example 59, 4-Aminomethyl-N-{4-[5-(3′-methoxy-biphenyl-4-yl)-pyrazolo[1,5-c]pyrimidin-7-ylamino]-phenyl}-benzamide] |
| < 10 | 6.31 to 100 | O=C(Nc1cccc(Nc2nc(-c3cccc4c3oc3ccccc34)cc3ccnn23)c1)c1ccc2c(c1)CCNC2 [Example 63, 1,2,3,4-Tetrahydro-isoquinoline-6-carboxylic acid [3-(5-dibenzofuran-4-yl-pyrazolo[1,5-c]pyrimidin-7-ylamino)-phenyl]-amide] |
